≈ marks a conversion by molar mass, not a printed value. Calls of active or inactive are those of the source. No cut-off for these calls is given here.

The test system of one assay is HaCaT. Nature of the assay: Cytotoxicity against human HaCaT cells assessed as reduction in cell viability incubated for 4 days by CellTiter 96 aqueous one solution assay. The format is cell-based. Particulars: 96 h.
Another assay concerns NHDF. Nature of the assay: Cytotoxicity against human HDF cells assessed as reduction in cell viability incubated for 7 days by CellTiter 96 aqueous one solution assay. The format is functional, cell-based. Particulars: 168 h.
Assay [1] concerns Staphylococcus aureus. Nature of the assay: Bactericidal activity against Staphylococcus aureus ATCC 25923 at 90 uM incubated for 24 hrs by microdilution assay. The format is functional, organism-based. (In general: Dilution methods test growth across graded concentrations, often in twofold steps.)
The subject of assay [2] is Staphylococcus aureus. Briefly: Antibacterial activity against Staphylococcus aureus ATCC 25923 incubated for 24 hrs by microdilution assay. Format: functional.
Assay [3] deals with Enterococcus faecium. Briefly: Antibacterial activity against Enterococcus faecium C15 incubated for 24 hrs by microdilution assay. The format is functional.
In assay [4] the test system is Staphylococcus aureus. Briefly: Antibacterial activity against Staphylococcus aureus ATCC 29247 incubated for 24 hrs by microdilution assay. Format: functional.
The test system of assay [5] is Staphylococcus aureus. Briefly: Bactericidal activity against Staphylococcus aureus ATCC 29247 at 90 uM incubated for 24 hrs by microdilution assay. Format: functional, organism-based.
Assay [6] relates to Enterococcus faecium. Nature of the assay: Antibacterial activity against Enterococcus faecium ATCC 35667 incubated for 24 hrs by microdilution assay. Format: functional.
The test system of assay [7] is Enterococcus faecium. Briefly: Bactericidal activity against Enterococcus faecium C15 at 90 uM incubated for 24 hrs by microdilution assay. Format: functional, organism-based.
For assay [8], the system named is Enterococcus faecium. Briefly: Bactericidal activity against Enterococcus faecium ATCC 35667 at 90 uM incubated for 24 hrs by microdilution assay. The format is functional, organism-based.
Assay [9] relates to Staphylococcus aureus. Nature of the assay: Antibacterial activity against Staphylococcus aureus ATCC 29247 at 90 uM incubated for 24 hrs by microdilution assay. Format: functional, organism-based.
Assay [10] relates to Pseudomonas aeruginosa. Nature of the assay: Antibacterial activity against Pseudomonas aeruginosa ATCC 49189 at 90 uM incubated for 24 hrs by microdilution assay. The format is functional, organism-based.
Assay [11] has as its system Pseudomonas aeruginosa. Nature of the assay: Antibacterial activity against Pseudomonas aeruginosa ATCC 10145 at 90 uM incubated for 24 hrs by microdilution assay. The format is functional, organism-based.
The subject of assay [12] is Enterococcus faecium. Nature of the assay: Antibacterial activity against Enterococcus faecium ATCC 35667 at 90 uM incubated for 24 hrs by microdilution assay. Format: functional, organism-based.
Assay [13] concerns Klebsiella aerogenes. Nature of the assay: Antibacterial activity against Enterobacter aerogenes ATCC 13048 at 90 uM incubated for 24 hrs by microdilution assay. The format is functional.
The nature of assay [14]: Selectivity ratio of IC50 for human HaCaT cells to IC50 for human HDF cells by CellTiter 96 aqueous one solution assay.
The test system of assay [15] is Enterobacter cloacae subsp. cloacae. Briefly: Antibacterial activity against Enterobacter cloacae ATCC 13047 at 90 uM incubated for 24 hrs by microdilution assay. The format is functional.
The subject of assay [16] is Pseudomonas aeruginosa. Briefly: Bactericidal activity against Pseudomonas aeruginosa ATCC 49189 at 90 uM incubated for 24 hrs by microdilution assay. The format is functional, organism-based.
In assay [17] the test system is Acinetobacter baumannii. Briefly: Bactericidal activity against Acinetobacter baumannii ATCC 19606 at 90 uM incubated for 24 hrs by microdilution assay. As to conditions: ATCC 19606 = CIP 70.34 = JCM 6841. The format is functional, organism-based.
In assay [18] the test system is Acinetobacter baumannii. Nature of the assay: Antibacterial activity against Acinetobacter baumannii ATCC 19606 at 90 uM incubated for 24 hrs by microdilution assay. Format: functional, organism-based. As to conditions: ATCC 19606 = CIP 70.34 = JCM 6841.
For assay [19], the system named is Klebsiella pneumoniae. Briefly: Antibacterial activity against Klebsiella pneumoniae ATCC 13883 at 90 uM incubated for 24 hrs by microdilution assay. Format: functional, organism-based.
Assay [20] has as its system Acinetobacter baumannii. Briefly: Bactericidal activity against Acinetobacter baumannii ATCC 17978 at 90 uM incubated for 24 hrs by microdilution assay. The format is functional, organism-based.
Assay [21] has as its system Pseudomonas aeruginosa. Nature of the assay: Bactericidal activity against Pseudomonas aeruginosa ATCC 10145 at 90 uM incubated for 24 hrs by microdilution assay. The format is functional, organism-based.
For assay [22], the system named is Staphylococcus aureus. Nature of the assay: Antibacterial activity against Staphylococcus aureus ATCC 25923 at 90 uM incubated for 24 hrs by microdilution assay. The format is functional, organism-based.
Assay [23] concerns Enterobacter cloacae subsp. cloacae. Briefly: Bactericidal activity against Enterobacter cloacae ATCC 13047 at 90 uM incubated for 24 hrs by microdilution assay. Format: functional.
Assay [24] has as its system Acinetobacter baumannii. Briefly: Antibacterial activity against Acinetobacter baumannii ATCC 17978 at 90 uM incubated for 24 hrs by microdilution assay. Format: functional, organism-based.
The test system of assay [25] is Klebsiella aerogenes. Nature of the assay: Bactericidal activity against Enterobacter aerogenes ATCC 13048 at 90 uM incubated for 24 hrs by microdilution assay. The format is functional.
For assay [26], the system named is Klebsiella pneumoniae. Nature of the assay: Antibacterial activity against Klebsiella pneumoniae ATCC 12657 at 90 uM incubated for 24 hrs by microdilution assay. Format: functional, organism-based.
The test system of assay [27] is Klebsiella pneumoniae. Briefly: Bactericidal activity against Klebsiella pneumoniae ATCC 12657 at 90 uM incubated for 24 hrs by microdilution assay. Format: functional, organism-based.
The test system of assay [28] is Klebsiella pneumoniae. Nature of the assay: Bactericidal activity against Klebsiella pneumoniae ATCC 13883 at 90 uM incubated for 24 hrs by microdilution assay. Format: functional, organism-based.

Consider `COc1cccc2c1C(=O)c1c(O)c3c(c(O)c1C2=O)C[C@@](O)(C(=O)CO)C[C@@H]3O[C@H]1C[C@H](N)[C@H](O)[C@H](C)O1` [DOXORUBICIN], for which the IC50 was 0.01 µM in the assay on HaCaT and 0.011 µM in the assay on NHDF.

`O=C(N[C@H](CO)[C@H](O)c1ccc([N+](=O)[O-])cc1)C(Cl)Cl` [CHLORAMPHENICOL]: the result in the assay with Staphylococcus aureus [1], in the assay on Staphylococcus aureus [5], with Enterococcus faecium [7] and in the assay on Enterococcus faecium [8] was inactive. The MIC75 in the assay with Staphylococcus aureus [2], in the assay on Enterococcus faecium [3], in the assay with Staphylococcus aureus [4] and in the assay on Enterococcus faecium [6] was 9.7 µM (≈ 3.13 µg/mL) in each case.

Consider `C=C1CC[C@]2(OC1)O[C@H]1C[C@H]3[C@@H]4CC[C@H]5[C@H](O)[C@H](O)C[C@@H](O[C@@H]6O[C@H](C)[C@H](O)[C@H](O)[C@H]6O)[C@]5(C)[C@H]4CC[C@]3(C)[C@H]1[C@@H]2C`, for which the outcome in the assay with Staphylococcus aureus [9], in the assay on Staphylococcus aureus [1], in the assay on Pseudomonas aeruginosa [10], in the assay on Pseudomonas aeruginosa [11], in the assay with Enterococcus faecium [12] and in the assay with Klebsiella aerogenes [13] was inactive. Moreover, the outcome (in [15]; with Pseudomonas aeruginosa [16]; in the assay with Acinetobacter baumannii [17]; in the assay on Acinetobacter baumannii [18]; in the assay with Klebsiella pneumoniae [19]; with Acinetobacter baumannii [20]) was inactive. Further, the result (in the assay on Pseudomonas aeruginosa [21]; in the assay with Staphylococcus aureus [22]; in [23]; in the assay with Acinetobacter baumannii [24]; in the assay on Klebsiella aerogenes [25]; with Klebsiella pneumoniae [26]) was inactive. Besides, the outcome in the assay with Klebsiella pneumoniae [27], with Staphylococcus aureus [5], with Enterococcus faecium [7], with Klebsiella pneumoniae [28] and in the assay on Enterococcus faecium [8] was inactive. Besides, in assay [14], the “Ratio IC50” value is 3 - 11. The IC50 in the assay with HaCaT is 47.4 µM; in the assay with NHDF, 16.5 µM. In the assay on Enterococcus faecium [3], this compound came in with an MIC75 of 84.3 µM (≈ 50 µg/mL).

For `C=C1CC[C@]2(OC1)O[C@H]1C[C@H]3[C@@H]4CC[C@H]5[C@H](O)[C@@H](O)C[C@@H](O[C@@H]6O[C@H](C)[C@H](O)[C@H](O)[C@H]6O)[C@]5(C)[C@H]4CC[C@]3(C)[C@H]1[C@@H]2C`, the outcome with Staphylococcus aureus [9], in the assay on Staphylococcus aureus [1], in the assay with Pseudomonas aeruginosa [10], in the assay on Pseudomonas aeruginosa [11], in the assay on Enterococcus faecium [12] and in the assay with Klebsiella aerogenes [13] was inactive. The outcome (in assay [15]; with Pseudomonas aeruginosa [16]; in the assay with Acinetobacter baumannii [17]; in the assay with Acinetobacter baumannii [18]; in the assay with Klebsiella pneumoniae [19]; in the assay on Acinetobacter baumannii [20]) was inactive. For the same compound, the outcome (in the assay on Pseudomonas aeruginosa [21]; with Staphylococcus aureus [22]; in assay [23]; with Acinetobacter baumannii [24]; with Klebsiella aerogenes [25]; in the assay with Klebsiella pneumoniae [26]) was inactive. In addition, the outcome in the assay with Klebsiella pneumoniae [27], with Staphylococcus aureus [5], with Enterococcus faecium [7], with Klebsiella pneumoniae [28] and with Enterococcus faecium [8] was inactive. Moreover, the “Ratio IC50” value in assay [14] is on record as 3 - 11. Also, the IC50 came to 42.1 µM with HaCaT and 8.9 µM in the assay with NHDF. The MIC75 in the assay with Enterococcus faecium [3] came out at 84.3 µM (≈ 50 µg/mL).

Take `C[C@@H]1CC[C@]2(OC1)O[C@H]1C[C@H]3[C@@H]4CC[C@H]5[C@H](O)[C@@H](O)C[C@@H](O[C@@H]6O[C@H](C)[C@H](O)[C@H](O)[C@H]6O)[C@]5(C)[C@H]4CC[C@]3(C)[C@H]1[C@@H]2C`: the result (in the assay on Staphylococcus aureus [9]; in the assay with Staphylococcus aureus [1]; in the assay on Pseudomonas aeruginosa [10]; in the assay on Pseudomonas aeruginosa [11]; with Klebsiella aerogenes [13]; in [15]) was inactive. In addition, the result in the assay with Pseudomonas aeruginosa [16], in the assay with Acinetobacter baumannii [17], with Acinetobacter baumannii [18], in the assay with Klebsiella pneumoniae [19], with Acinetobacter baumannii [20] and in the assay with Pseudomonas aeruginosa [21] was inactive. For the same compound, the outcome (in the assay with Staphylococcus aureus [22]; in assay [23]; in the assay on Acinetobacter baumannii [24]; with Klebsiella aerogenes [25]; with Klebsiella pneumoniae [26]; in the assay with Klebsiella pneumoniae [27]) was inactive. In addition, the result in the assay with Staphylococcus aureus [5], in the assay with Enterococcus faecium [7], with Klebsiella pneumoniae [28] and in the assay with Enterococcus faecium [8] was inactive. Besides, the “Ratio IC50” value in assay [14] is on record as 3 - 11. For the same compound, the IC50 in the assay with HaCaT turned out to be 36.3 µM; in the assay with NHDF, 8.6 µM. In addition, the MIC75 in the assay on Enterococcus faecium [3] and against Enterococcus faecium [6] was 84.1 µM (≈ 50 µg/mL) each time.

`C[C@@H]1CC[C@]2(OC1)O[C@H]1C[C@H]3[C@@H]4CC[C@H]5[C@H](O)[C@H](O)C[C@@H](O[C@@H]6O[C@H](C)[C@H](O)[C@H](O)[C@H]6O)[C@]5(C)[C@H]4CC[C@]3(C)[C@H]1[C@@H]2C`: the outcome with Staphylococcus aureus [9], with Staphylococcus aureus [1], in the assay on Pseudomonas aeruginosa [10], in the assay with Pseudomonas aeruginosa [11], in the assay with Enterococcus faecium [12] and with Klebsiella aerogenes [13] was inactive. For the same compound, the outcome (in assay [15]; with Pseudomonas aeruginosa [16]; with Acinetobacter baumannii [17]; in the assay with Acinetobacter baumannii [18]; with Klebsiella pneumoniae [19]; in the assay with Acinetobacter baumannii [20]) was inactive. Further, the result (in the assay with Pseudomonas aeruginosa [21]; with Staphylococcus aureus [22]; in [23]; in the assay with Acinetobacter baumannii [24]; with Klebsiella aerogenes [25]; with Klebsiella pneumoniae [26]) was inactive. Further, the outcome in the assay on Klebsiella pneumoniae [27], in the assay with Staphylococcus aureus [5], in the assay on Enterococcus faecium [7], in the assay with Klebsiella pneumoniae [28] and with Enterococcus faecium [8] was inactive. In addition, in assay [14], the “Ratio IC50” value is given as 3 - 11. For the same compound, the IC50 in the assay on HaCaT stood at 74.9 µM; in the assay with NHDF, 6.6 µM. The same compound displayed an MIC75 in the assay on Enterococcus faecium [3] of 84.1 µM (≈ 50 µg/mL).

By IC50 is commonly meant the concentration at which inhibition is half-maximal.

(Values after ChEMBL document CHEMBL4414613, “Antibacterial 5α-Spirostane Saponins from the Fruit of Cordyline manners-suttoniae” (J Nat Prod, 2019).)
